Data published in article PMC8553373 (The Journal of Biological Chemistry, 2021).

Molecular target: Nsp9COV19(C73S) as substrate of Nsp12COV19 NiRAN domain (Severe acute respiratory syndrome coronavirus 2, UniProt P0DTD1, C4213S)
Type: biochemical, SARS-CoV-2

Structure (SMILES): C=C1C(=O)[C@]23[C@H](O)[C@H]1CC[C@H]2[C@@]12CO[C@]3(O)[C@@H](O)[C@@H]1C(C)(C)CC[C@@H]2O [Compound 1, Oridonin]
- level of inhibition with mutant Nsp9 compared with wild-type: approximately threefold lower
